Data as given in patent US6337340B1, “Carboxylic acids and isosteres of heterocyclic ring compounds having multiple heteroatoms for vision and memory disorders” (GPI NIL Holdings, Inc., priority 1998, dated 2002).
Marks after values point to notes of the source that are not given here.

Assays:
[1] = tested on: retinal ganglion cell axons; test: Protection of retinal ganglion cell axons from degeneration following optic nerve transection (Table V); type: in vivo, rat; settings: ± SEM
Description: Efficacy of representative compounds from different immunophilin ligand series in protecting retinal ganglion cell axons from degeneration following optic nerve transection is set forth in Table V.

[2] = Clearance (Table V comments); type: in vitro ADME
aged rodents = test: Morris watermaze spatial learning and memory in aged rodents; type: in vivo, C57BL/6N-Nia mice; settings: daily 10 mg/kg
Description: The Morris watermaze is widely used for assessing spatial memory formation and retention in experimental animals. The test depends on the animal's ability to utilize spatial visual information in order to locate a submerged escape platform in a water tank. It is important that the tank itself be as devoid of specific visual features as possible—thus, it is always circular in shape, the sides are kept smooth and in uniform dull colors, and the water is rendered opaque with nontoxic watercolor pigment or powdered milk. This is to ensure that the animal navigates only by the use of more distant visual cues, or by the use of intra-maze cues specifically provided by the experimenter.
The animals' path, speed, and swim time are tracked with a ceiling camera for later computerized analysis. Over the course of several successive trials, spatial learning can therefore be defined as a drop of distance swum, or time elapsed, from placement in the tank until escape onto the invisible platform. […]
Retention testing began after 3 weeks of dosing using the same methods as the acquisition phase. Swim Distances (cm) were analyzed in a 7×5 ANOVA including Groups and Blocks (1-5) as factors in the analysis, treating Blocks as a repeated measure.

[3] = tested on: streptozotocin-induced diabetic rat; test: Streptozotocin-induced diabetic sensory neuropathy, hot plate and tail flick; type: in vivo, Male Wistar rats; settings: lesioned animals treated for 6 weeks at 10 mg/kg s.c.
Method: The procedure involved using Male Wistar rats which were given a single injection of streptozotocin (65 mg/kg i.v.). Blood glucose levels were determined weekly for the first three weeks and on the last week of the experiment. Animals were evaluated weekly for signs of sensory neuropathy using the conventional hot plate and tail flick apparatus test procedures.

[4] = tested on: retinal ganglion cells and optic nerve axons; test: In vivo retinal ganglion cell and optic nerve axon tests after optic nerve transection; design: species or system Sprague Dawley rats; settings: 90 days after transection
Description: A second groups received the same neuroimmunogphilin FKBP ligand dose for 28 days.
All eyes and optic nerves stumps were removed.

[5] = tested on: retinal ganglion cells and optic nerve axons; test: as above; design: species or system Sprague Dawley rats; settings: for ON axon Count: axonal density multiplied by ON area; for Distal optic nerve myelin basic protein Density: shrinkage: cross sectional area vs sham
retina = test: Streptozotocin induced diabetes, retinal neovascularization and neuron loss; type: in vivo
retinal ganglion cells = test: Retinal ischemia by raised intraocular pressure; type: in vivo, rat
Description: Retinal ganglion cells were retrogradely labeled in adult rate by bilateral injection of fluorogold in their lateral geniculate nuclei. Labeled ganglion cells in the normal rat retina appear as white profiles against the dark background (FIG. 1A). Complete retinal ischemia was produced by infusing normal saline solution into the retinal vitreous cavity of each eye until the intraocular pressure exceeded arterial blood pressure. 28 days after the ischemic episode extensive degeneration of retinal ganglion cell was evidenced by massive reduction in the density of fluorogold labeled cells (FIG. 1B).
Optic nerves from vehicle treated cases examined 28 days after a 1 hour retinal ischemic episode are characterized by a decreased density of optic nerve axons and the appearance of numerous degenerating myelin figures (bright white filled circles).

FKBP12 = FKBP12 (Homo sapiens, UniProt P62942); test: Ki Test Procedure: inhibition of peptidyl-prolyl isomerase (rotamase) activity, chymotrypsin-coupled assay; type: biochemical; settings: apparent Ki; read-out: Ki rotomase
Chain of FKBP12 (P62942 whole entry, species assumed): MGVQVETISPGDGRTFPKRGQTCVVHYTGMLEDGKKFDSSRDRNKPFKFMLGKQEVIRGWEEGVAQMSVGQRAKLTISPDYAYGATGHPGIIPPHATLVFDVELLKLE
Description: The inhibition of the prolyl peptidyl cis-trans isomerase activity of FKBP may be measured as an indicator of this affinity.
These values are obtained as apparent Ki's.
The cis-trans isomerization of an alanine-proline bond in a model substrate, N-succinyl-Ala-Ala-Pro-Phe-p-nitroanilide, is monitored spectrophotometrically in a chymotrypsin-coupled assay, which releases para-nitroanilide from the trans form of the substrate. The inhibition of this reaction caused by the addition of different concentrations of inhibitor is determined, and the data is analyzed as a change in first-order rate constant as a function of inhibitor concentration to yield the apparent Ki values.
In a plastic cuvette are added 950 ml of ice cold assay buffer (25 mM HEPES, pH 7.8, 100 mM NaCl), 10 ml of FKBP (2.5 mM in 10 mM Tris-Cl pH 7.5, 100 mM NaCl, 1 mM dithiothreitol), 25 ml of chymotrypsin (50 mg/ml in 1 mM HCl) and 10 ml of test compound at various concentrations in dimethyl sulfoxide. The reaction is initiated by the addition of 5 ml of substrate (succinyl-Ala-Phe-Pro-Phe-para-nitroanilide, 5 mg/ml in 2.35 mM LiCl in trifluoroethanol).
The absorbance at 390 nm versus time is monitored for 90 seconds using a spectrophotometer and the rate constants are determined from the absorbance versus time data files.

[6] = GPI 1046 first 14 days, 90 days after transection
[7] = ONT, GPI 1046 14 days, 90 days after transection
[8] = ONT, GPI 1046 28 days, 90 days after transection
[9] = 28 day treatment beginning 8 weeks after onset of streptozotocin induced diabetes

O=C(SCCCc1ccccc1)[C@@H]1CCCN1C(=O)NC12CC3CC(CC(C3)C1)C2 [B]
RT97+ RGC axon density 11 days after ON transection (36 ON axon rescued) [1]: 100.0% ± 5.2% SEM | Clearance [2]: 7 µL/min

O=C(SCCCc1ccccc1)[C@@H]1CCCN1S(=O)(=O)Cc1ccccc1 [C]
RT97+ RGC axon density 11 days after ON transection (36 ON axon rescued) [1]: 60.4% ± 3.1% SEM | Clearance [2]: 31.1 µL/min

O=C(OCCCCc1ccccc1)[C@@H]1CCCCN1S(=O)(=O)Cc1ccccc1 [D]
RT97+ RGC axon density 11 days after ON transection (36 ON axon rescued) [1]: 58.4% ± 6.4% SEM

CCC(C)(C)C(=O)C(=O)N1CCCCC1C(=O)OC(CCc1ccccc1)CCc1ccccc1 (stereo not shown) [E]
RT97+ RGC axon density 11 days after ON transection (36 ON axon rescued) [1]: 56.6% ± 9.4% SEM | Clearance [2]: 41.8 µL/min

CCC(C)(C)C(=O)C(=O)N1CCS[C@H]1C(=O)OCCCc1cccnc1 [F]
RT97+ RGC axon density 11 days after ON transection (36 ON axon rescued) [1]: 55.1% ± 5.9% SEM

CCC(C)(C)C(=O)C(=O)N1CCC[C@H]1C(=O)CCCCc1cccnc1 [J]
Clearance [2]: 1.5 µL/min

CCC(C)(C)C(=O)C(=O)N1CCCC[C@H]1C(=O)SCCC(c1ccccc1)c1ccccc1 [K]
Clearance [2]: 4.5 µL/min

CCC(C)(C)C(=O)C(=O)N1CCC[C@H]1C(=O)O [L]
RT97+ RGC axon density 11 days after ON transection (36 ON axon rescued) [1]: 7.8% ± 3.0% SEM | Clearance [2]: 5.2 µL/min

CCC(C)(C)C(=O)C(=O)N1CCC[C@H]1C(=O)SCCC(c1ccccc1)c1ccccc1 [M]
RT97+ RGC axon density 11 days after ON transection (36 ON axon rescued) [1]: −6.3% ± 3.9% SEM | Clearance [2]: 12.5 µL/min

CN(C)C(=O)N1CCC[C@H]1C(=O)SCCCc1ccccc1 [N]
Clearance [2]: 21.9 µL/min

GPI 1046
spatial memory performance (swim distance, retention testing) (aged rodents; aged impaired mice, retention testing after 3 weeks of dosing): significantly enhanced spatial memory performance | difference between young and aged impaired GPI-1046 treated groups, retention phase (aged rodents; F1.69=3.09, P=0.08): no longer any statistically significant difference | hot plate and tail flick latency [3]: improvement in latency | RT97+ RGC axon density 11 days after ON transection (36 ON axon rescued) [1]: 60.5% ± 3.9 SEM | Clearance [2]: 63.8 µL/min | preservation of axons of protected neurons in the proximal stump ([4]; Example 14, 10 mg/kg/day s.c. 28 days, RT97 immunohistochemistry): preserved the axons of virtually all protected neurons | fascicular pattern of myelin labeling in the distal stump ([4]; GPI 1046 first 28 days): dramatic protection of the fascicular pattern of myelin labeling | pattern of myelin degeneration in the proximal stump (myelin basic protein immunohistochemistry) ([4]; GPI 1046 first 28 days): dramatic preservation of the fascicular staining pattern | % surviving RGCs with ON axons ([4]; ONT, GPI 1046 28 days): 81.4% | ON head area (% sham) ([4]; ONT, GPI 1046 28 days): 95%* | Spared RGC population ([4]; ONT, GPI 1046 28 days): 28,096* | increased ON axon density ([4]; ONT, GPI 1046 28 days, adjusted for optic nerve diameter): 5.0X | Distal optic nerve myelin basic protein Density: myelin preservation ([4]; ONT, GPI 1046 28 days, cross sectional area multiplied by myelin density): 99% myelin % myelin preservation | Proximal optic nerve myelin basic protein Density ([4]; ONT, GPI 1046 28 days, ± SEM): 70 ± 6.3 SEM % recovery | ganglion cells population spared (perikaryal neuroprotection) ([5]; Example 14, 10 mg/kg/day s.c. 28 days, sacrificed 90 days after transection): 25% | density of myelin in the distal stump [5, 6]: slightly increase the density of myelin | pattern of myelin degeneration in the proximal stump (myelin basic protein immunohistochemistry) [5, 6]: did not alter the pattern of myelin degeneration | shrinkage of the distal stump [5, 6]: did not protect against shrinkage | cross sectional shrinkage of the distal stump ([5]; GPI 1046 first 28 days, 90 days after transection): prevented cross sectional shrinkage | % RGCs Rescued [5, 7]: 5.3% | % surviving RGCs with ON axons [5, 7]: 33.6% | ON head area (% sham) [5, 7]: 76% | Spared RGC population [5, 7]: 20,275 | increased ON axon density ([5]; ONT, GPI 1046 14 days, 90 days after transection, adjusted for optic nerve diameter): 1.5X | ON axon Count [5, 7]: 6820 | Distal optic nerve myelin basic protein Density: myelin loss ([5]; ONT, GPI 1046 14 days, 90 days after transection, cross sectional area multiplied by myelin density): 47% loss | Distal optic nerve myelin basic protein Density: shrinkage [5, 7]: 33% shrinkage | ON Axon density ([5]; ONT, GPI 1046 14 days, 90 days after transection, mean ± SEM RT97 labeled axons in 200 μm × 200 μm region): 569 ± 23 | Proximal optic nerve myelin basic protein Density ([5]; ONT, GPI 1046 14 days, 90 days after transection, ± SEM): 1.6 ± 3.0 SEM % recovery | RGC Counts ([5]; ONT, GPI 1046 28 days 10 mg/kg/day sc, 90 days after transection, mean density ± SEM of Fluoro-gold labeled RGC in 400 μm × 400 μm gridfields): 67.9 ± 5.8 | ON axon Count [5, 8]: 22,861* | Distal optic nerve myelin basic protein Density: shrinkage [5, 8]: 56% less % less shrinkage | protection of optic nerve axons ([5]; proximal stump, GPI 1046 first 14 days after transection, 90 days): 5.3% | loss of neurons in the INL and GCL (retina; 28 day treatment beginning 8 weeks after onset of diabetes, vs streptozotocin/vehicle controls): appeared to decrease the loss of neurons in both the INL and GCL | neovascularization in the PR, ONL, OPL and INL (retina; [9]): reduced neovascularization | neuronal loss in the ONL (retina; [9]): did not appear to protect against neuronal loss in the ONL | protection of fluorogold labeled retinal ganglion cells (retinal ganglion cells; 10 mg/kg s.c. 1 hour prior and 10 mg/kg/day for next four days, 28 days after ischemic episode): noticeable protection of a large proportion of the vulnerable ganglion cell population | density of degenerating myelin figures in optic nerve (retinal ganglion cells; 28 days after 1 hour retinal ischemic episode): dramatically decreased the density of degenerating myelin figures | protection of optic nerve axons from ischemic degeneration (retinal ganglion cells; 28 days after 1 hour retinal ischemic episode, toluidine blue staining): protected the majority of optic nerve axons from degeneration | Ki (FKBP12): 7.5 nM
